US6900343B1, “Method for the purification of metallocenes” (Basell Polyolefine GmbH, priority 1998, dated 2005)

Tests used:
[1] = Solubility comparison in toluene at room temperature
[2] = Propylene polymerization with supported metallocene/MAO/SiO2 catalyst; details: supported on SiO2 with MAO (Al/Zr=215); liquid propylene, 60° C., 1 hour
Procedure: 35.1 mg (0.047 mmol) of (1) were stirred in 2.1 ml of 30% strength MAO solution in toluene (Al/Zr=215) for 60 minutes at room temperature. 2 g of SiO2 (Grace XPO2107, pretreated at 140° C., 10 mbar, 10 hours) were subsequently added and the mixture was stirred for another 10 minutes. The solvent was removed in an oil pump vacuum.
A dry 2 l reactor was flushed firstly with nitrogen and subsequently with propylene and charged with 1.5 l of liquid propylene. 2 ml of TEA (20% strength in Varsol) were added thereto and the mixture was stirred for 15 minutes. The catalyst system prepared above (0.886 g) was subsequently resuspended in 20 ml of heptane and then injected into the reactor and rinsed in with 15 ml of heptane. The reaction mixture was heated to the polymerization temperature of 60° C. and polymerization was carried out for 1 hour. The polymerization was stopped by venting the remaining propylene. The polymer was dried in a vacuum drying oven. This gave 470 g of polypropylene powder. […] The catalyst activity was 0.53 kg of PP/g of catalyst x h.
27.1 mg (0.047 mmol) of dimethylsilanediylbis(2-methyl-4,5-benzoindenyl)zirconium dichloride were stirred in 2.1 ml of 30% strength MAO solution in toluene (Al/Zr=215) for 60 minutes at room temperature. […]

Compound | solubility [1] | catalyst activity [2]
CC1=Cc2c(ccc3ccccc23)[C]12[Si](C)(C)[C]1(C(C)=Cc3c1ccc1ccccc31)[Zr]2([Cl])[Cl] (stereo not shown) [dimethylsilanediylbis(2-methyl-4,5-benzoindenyl)zirconium dichloride, reference compound] | about 0.36 mmol/l | 0.46 kg of PP/g of catalyst x h
Cc1cc2ccccc2[c-]1[Si](C)(C)[c-]1c(C)cc2ccccc21.[Cl-].[Cl-].[Zr+4] (stereo not shown) [dimethylsilanediylbis(2-methylindenyl)zirconium dichloride, reference compound] | about 2.1 mmol/l | 
Dimethylsilanediyl-bis(2-methylindenyl)zirconium Monochloride mono(2,4-di-tert-butylphenoxide) [Compound 2] | > 15 mM | 
CCC(C)(C)c1ccc([O][Zr]2([Cl])[C]3(C(C)=Cc4c3ccc3ccccc43)[Si](C)(C)[C]23C(C)=Cc2c3ccc3ccccc23)c(C(C)(C)CC)c1 (stereo not shown) [Compound 6, Dimethylsilanediylbis(2-methyl-4,5-benzoindenyl)-zirconium Monochloride mono(2,4-di-tert-pentylphenoxide)] | about 17.7 mmol/l | 
CC1=Cc2c(ccc3ccccc23)[C]12[Si](C)(C)[C]1(C(C)=Cc3c1ccc1ccccc31)[Zr]2([Cl])[O]c1ccc(C(C)(C)C)cc1C(C)(C)C (stereo not shown) [Compound 1, Dimethylsilanediylbis(2-methyl-4,5-benzoindenyl)zirconium Monochloride mono(2,4-di-tert-butylphenoxide)] | > 13 mM | 0.53 kg of PP/g of catalyst x h
